# According to ChEMBL document CHEMBL3507680, “University of Dundee, Gates Library screen for HepG2 cell viability”:
# Experiment: Human HepG2 cell viability assay in 384 well format
# Assay type: toxicity, cell-based
# Design: dose 125 nL, time 70.5 hour; concentration not given beside the values
# Settings: HepG2 cells, read-out: Inhibition
row,Compound,cytotoxicity at 70.5 h [%]
1,COC(=O)C(CNC(=O)Nc1nncs1)Cc1ccc(F)cc1 (centres undefined),-4.56
2,COc1ccnc(N2CCc3ccc(OC(F)F)cc3C2)n1,-2.84
3,COc1ccc(Oc2ncccc2NC(=O)N2CCOC(C)C2)cc1 (centres undefined),-5.19
4,CCc1ccc(O)c(C(=O)N2CCN(CC(=O)N(CC)CC)CC2)c1,1.25
5,CNC(=O)c1sccc1S(=O)(=O)Nc1ccc(C)cc1,-1.86
6,N#CCCN(Cc1cccnc1)C(=O)c1ccn(-c2ccccc2)n1,1.01
7,CCC(=O)Nc1ccc(C(C)Nc2nc3c(cnn3C)c(=O)[nH]2)cc1 (centres undefined),-5.84
8,O=C(CN(Cc1cccs1)c1ccc(F)cc1)NC1CCOCC1,-1.98
9,O=C(c1ccc(Cl)cn1)N1CCC(COCc2ccccc2)C1 (centres undefined),15.8
10,CC(C)(C)C(=O)N1CCC(COCc2ccccc2)C1 (centres undefined),-3.49
11,Cc1cc(CSCc2cc(C)on2)on1,12.2
12,Cc1cc(CSc2ccccn2)on1,-3.89
13,O=C(c1c(F)cccc1Br)N1CCCOCC1,3.06
14,CC(C)(C)c1nc2cc(NC(=O)Cn3ccc(=O)[nH]c3=O)ccc2o1,-13.2
15,CCC(CC)NC(=O)c1cccnc1-n1cccn1,18
16,CN(C)c1ccc(NC(=O)C2CN(Cc3ccccc3)CCO2)cn1 (centres undefined),-3.21
17,O=C(O)c1ccn(-c2ccccc2NS(=O)(=O)c2cccc(Cl)c2F)n1,-7.81
18,CCCC(NC(=O)c1cscc1C)c1nnn[nH]1 (centres undefined),-2.41
19,CC(CNC(=O)N1CCN(Cc2ccon2)CC1)N(C)C1CC1 (centres undefined),-1.74
20,COCCN1CCCC1c1cccc2c1OCCO2 (centres undefined),7.8
21,CC(CC(=O)NCCCn1cccn1)c1cccnc1 (centres undefined),-6.56
22,Cc1cccc(NC(=O)[C@@H]2CCCN2Cc2cnc3ccccn23)n1,1.07
23,O=C(NCCCn1cccn1)N1CCCC1c1cccs1 (centres undefined),-7.95
24,Cc1cc(C)n(CC2CCCCN2CC(=O)Nc2ccncc2)n1 (centres undefined),-0.378

row,Compound,cytotoxicity at 70.5 h [%]
1,Cc1cc(C)n(CC2CCCN2CC(=O)Nc2nnc(C)s2)n1 (centres undefined),0.949
2,CCC(Nc1nc(C(F)(F)F)nc2ccccc12)C(=O)O (centres undefined),2.5
3,Cc1ccc(S(=O)(=O)NCCNC(=O)c2ccoc2)cc1C,-7.77
4,CC(C)(C)OC(=O)NC(C)(C)c1noc(CSc2ccccn2)n1,-1.21
5,CCCc1ccc(S(=O)(=O)NCCNC(=O)c2ccoc2)cc1,-6.96
6,O=C(NCCNS(=O)(=O)c1ccc(C(F)(F)F)cc1)c1ccoc1,-6.84
7,CCS(=O)(=O)c1ccc(N2CCC(NC(=O)C(C)SC)CC2)cc1 (centres undefined),-6.83
8,Cn1c(C(=O)N2CCC(CC(N)=O)CC2)c(Cl)c2ccccc21,28.2
9,CC(=O)N1CCN(C(=O)c2c(Cl)c3ccccc3n2C)CC1,-7.65
10,COc1cccc(S(=O)(=O)CCN2CCN(CC(F)F)CC2)c1,1.26
11,Cc1ccc(NC(=O)Cc2c(C)nc3c(c2C)c(=O)[nH]n3C)cc1F,-4.3
12,c1nc(N2CCCCC2Cn2cncn2)c2sccc2n1 (centres undefined),-5.69
13,Cc1cnn(CC2CCCN2c2ncnc3sccc23)c1 (centres undefined),1.15
14,O=C(OCc1ccccc1)c1cccc(NC(=O)C2COCCO2)c1 (centres undefined),1.04
15,CC(C)NC(=O)NCCCc1cccc(F)c1,0.142
16,Cc1nn(CCO)c(C)c1CNC1CCCCc2ccccc21 (centres undefined),3.84
17,CCc1nc(NS(=O)(=O)c2cc(C)ccc2Br)no1,1.48
18,CCOC(=O)N1CCN(C(=O)C2CC(=O)N(c3ccccc3Br)C2)CC1 (centres undefined),-2.99
19,Cc1nc(C)n(CC2CCCN2CC(=O)Nc2nncs2)n1 (centres undefined),-0.801
20,Cc1ccc(S(=O)(=O)NCCc2cccnc2)cc1C,-3.85
21,COc1ccc(S(=O)(=O)NCCC(=O)NCc2ccoc2)cc1OC,-11.3
22,O=C(Nc1nncs1)NC1CCCc2c1cnn2CCO (centres undefined),4.56
23,CCC(CC)C(=O)Nc1ccc2oc(=O)n(CCN(C)C)c2c1,12.5
24,CCC(C)C(=O)Nc1ccc2oc(=O)n(CCN(C)C)c2c1 (centres undefined),-1.79

row,Compound,cytotoxicity at 70.5 h [%]
1,O=C(NC1CCCCC1)NC1CCCc2c1cnn2CCO (centres undefined),-5.64
2,CN(C)CCn1c(=O)oc2ccc(NC(=O)N3CCCCCC3)cc21,35.5
3,CCC(O)CN1CCN(C(=O)c2cnn(-c3ccccc3F)c2)CC1 (centres undefined),2.94
4,CC/C=C(/C)C(=O)NCCc1csc(N2CCCC2)n1,-0.998
5,CC(C)(C)SCC(=O)NCCc1csc(N2CCCC2)n1,-6.06
6,O=C(O)c1csc(S(=O)(=O)Nc2c(F)cccc2-n2cccn2)c1,4.64
7,COc1c(C)cnc(CSc2nnc(NC3CC3)s2)c1C,-1.65
8,O=C1CCCN1Cc1nnc(SCc2ccc3c(c2)CCC3)o1,9.34
9,Cc1ccc(C2COCCN2C(=O)c2cccc(N(C)C)c2)o1 (centres undefined),-7.51
10,CCN(CC1CN(Cc2cccnc2)CCO1)c1cccnn1 (centres undefined),-0.418
11,Cc1ccc(C2COCCN2C(=O)c2ccc(C)s2)o1 (centres undefined),-9.04
12,Cc1ccc(C2COCCN2C(=O)c2ccsc2)o1 (centres undefined),-8.5
13,CCN(CC1CN(Cc2nc(C3CC3)no2)CCO1)c1cccnn1 (centres undefined),-16.6
14,COc1ccc(C(=O)N(CCC#N)Cc2ccccn2)cc1,-2.45
15,Cc1n[nH]c(C)c1C1COCCN1c1ncnc2sccc12 (centres undefined),-13
16,CCN(CC1CN(Cc2ccccn2)CCO1)c1cccnn1 (centres undefined),-9.99
17,CCN(CC1CN(Cc2nccn2CC)CCO1)c1cccnn1 (centres undefined),-9.34
18,CCc1ncc2c(n1)CN(Cc1cccc3c1OCCO3)CC2,-3.18
19,CCN1CCC(NC(=O)NC2CCOc3ccc(Br)cc32)CC1 (centres undefined),-3.03
20,Cc1noc(C)c1CN(C)C(=O)NCCOc1ccc(F)cc1F,-6.66
21,COC(=O)NCC(=O)NCC(C)(C)c1cccc(Br)c1,-0.269
22,COCC(=O)N1CCCC1c1cccc(C)c1C (centres undefined),4.58
23,CC(=O)N(Cc1c(F)cccc1F)C1CCCC1,-6.67
24,CCc1nsc(NC2CC(=O)N(C(C)(C)C)C2)n1 (centres undefined),-8.26

row,Compound,cytotoxicity at 70.5 h [%]
1,CC1CCCCN1C(=O)c1ccc(Br)s1 (centres undefined),-5.12
2,O=C(C[S+]([O-])Cc1ccccc1F)N1CCc2sccc2C1 (centres undefined),-7.21
3,O=C(C[S+]([O-])Cc1c(Cl)cccc1Cl)N1CCc2sccc2C1 (centres undefined),-7.37
4,O=C(C[S+]([O-])Cc1ccc(F)cc1)N1CCc2sccc2C1 (centres undefined),-9.59
5,Cc1cc(N)nc(SC2CCN(c3ccccc3F)C2=O)n1 (centres undefined),19
6,O=c1c2cccnc2cnn1CC(O)c1ccc(F)c(F)c1 (centres undefined),-6.63
7,O=c1c2cccnc2cnn1CC(O)c1ccc(Br)cc1 (centres undefined),12
8,Cc1cc(N)nc(SC2CCN(c3ccccc3)C2=O)n1 (centres undefined),-2.2
9,CC(C)c1nnc(NC(=O)c2cccc(OCC(F)(F)F)n2)[nH]1,-3.15
10,O=C(Nc1cc(C2CCOCC2)[nH]n1)c1cscn1,-7.61
11,CN(C(=O)CCOc1ccccc1)C1CCN(CC2CCOC2)CC1 (centres undefined),-8.86
12,Cc1n[nH]c(C)c1NC(=O)c1cccc(OCC(F)(F)F)n1,-10.8
13,Cc1ccoc1C(=O)NCCOc1ccc(C(F)(F)F)cn1,18.3
14,CN1CCCN(S(C)(=O)=O)c2cc(F)ccc21,-3.48
15,Cc1nnc2ccc(NCC3(N4CCCCC4)CCOCC3)nn12,-4.4
16,CCN(Cc1ccoc1)C(=O)c1cc(S(N)(=O)=O)c(C)o1,-5.31
17,CC(NCc1cnc(C2CCC2)s1)c1ccc(-n2cncn2)cc1 (centres undefined),-5.3
18,CC1C(=O)Nc2cccnc2N1S(=O)(=O)c1cc(F)cc(F)c1 (centres undefined),16
19,Cc1nc(C)c(C(C)NC(=O)NCCNc2cccc(F)c2C#N)s1 (centres undefined),-8.61
20,CCN(Cc1ccoc1)C(=O)c1cc2c(c(S(N)(=O)=O)c1)CCC2,-8.02
21,CC(NCc1cnc(C2CCC2)s1)c1cccc(-n2cccn2)c1 (centres undefined),16.3
22,CC(NCc1cnc(C2CCC2)s1)c1cccc(-n2ccnc2)c1 (centres undefined),-5.22
23,Cc1cccc(C2(C(=O)NCC(C)CN3CCCC3=O)CC2)c1 (centres undefined),-11.5
24,NC(=O)C1CCN(C(=O)c2ccccc2OCc2ccncc2)CC1,-12.3

row,Compound,cytotoxicity at 70.5 h [%]
1,Cc1cccc(COc2ccccc2C(=O)N2CCC(C(N)=O)CC2)c1,4.8
2,Oc1ccc(N2CCN(Cc3ccc(F)cc3Br)CC2)cc1,-7.04
3,Cc1nc2cc(C(=O)N(CCC#N)CCC#N)ccc2n1C,-6.33
4,CN(Cc1ccccc1)CC(C)(C)NC(=O)c1ccc(C(N)=O)cn1,1.67
5,Cc1ccc(Br)c(S(=O)(=O)NCc2cnn(C)c2)c1,-5.3
6,Cn1ccnc1-c1noc(NCc2ccc(Cl)cc2)n1,-8.5
7,Cn1ccnc1-c1noc(NCc2ccc(Br)cc2)n1,-7.73
8,Cn1ccnc1-c1noc(NCc2ccccc2)n1,-7.49
9,CCc1noc(CS(=O)(=O)CC=C(C)C)n1,-9.04
10,CC(=O)NCCCNCc1c(C)nn(CC(C)C)c1N(C)C,-5.4
11,CNS(=O)(=O)CC(=O)N(Cc1ccccc1)c1ccc(C)cc1,-5.84
12,CN(Cc1ccccc1)CC(C)(C)NC(=O)c1ccon1,-4.18
13,CCOCc1ccc(CNc2nc(OC)ncc2Cl)cc1,-10.8
14,COC1CCCN(C(=O)NCC(C)(C)SC)C1 (centres undefined),-11.6
15,Cc1ccc(-c2ncc(CN3CCOC(c4ccco4)C3)s2)o1 (centres undefined),-6.87
16,O=C(C1CCCN(Cc2cccnc2)C1)N1CCc2sccc2C1 (centres undefined),-5.24
17,OCCCN(CCn1cncn1)c1ccccc1,30.6
18,CC(NS(=O)(=O)CCc1ccccn1)c1ccccc1Br (centres undefined),33.3
19,Cc1csc(CNC(=O)NC(C)c2ccc3c(c2)OCCO3)n1 (centres undefined),5.07
20,CN(C)S(=O)(=O)N1CCN(C(=O)c2cc(-c3ccccc3)[nH]n2)CC1,-0.515
21,COCCCNC(=O)Nc1cccc(Cl)c1-n1cccn1,-3.36
22,CN(C)CC(NC(=O)c1ccn(C)c(=O)c1)c1ccccc1 (centres undefined),0.262
23,Cc1ccc2c(c1)CCC2NCc1c(C)nn(CCO)c1C (centres undefined),-6.83
